# Source: patent US6825326B2, “PSCA: prostate stem cell antigen and uses thereof” (The Regents of the University of California, priority 1997, dated 2004)
# Columns and labels:
# [1] = tested on: PC3-PSCA tumors; experiment: Established subcutaneous PC3-PSCA tumors; details: day 43; 1G8 1 mg 3×/week 3 weeks; doxorubicin 25 μg once weekly 3 weeks
# Description: PC3-PSCA cells were derived by retroviral gene transfer. […] Amphotropic retrovirus was generated by co-transfection of 293T cells with pSR-α containing PSCA and a retroviral helper plasmid containing the amphotropic envelope protein. PC3 cells were subsequently infected with the PSCA containing amphotropic retrovirus, and 48 hours after infection the cells were selected by growth in medium containing the neomycin analogue G418. After 2-3 weeks of selection and expansion, a Western blot was performed to confirm that the PC3-PSCA cells express PSCA protein.
# PC3-PSCA cells were grown in T-150 flasks in DMEM+10% FBS prior to the injections. The cells were grown to log phase, harvested, washed, counted, then mixed with Matrigel at a 1:1 dilution, and kept on ice. For injection, male IcR-SCID mice were shaved on their flanks, and each mouse received a single subcutaneous injection of about 1×10^6 cells in a volume of 100 μl on the right flank. The growth of PC3-PSCA tumors was followed by caliper measurements of the growing tumors. The mice were selected for treatment when the tumor reached the size of 100-200 mm^3, at approximately 9 days after the subcutaneous injection. The tumor size was measured at days +9, +15, +23, +29, +36, and +43 post injection.
# The mice treated with 1G8, were administered 1 mg of 1G8, three times per week for three consecutive weeks. […]
# [2] = LD50 experiment to determine the maximum tolerable dose; assay type: in vivo, mice
# Description: An LD50 experiment was performed to determine the maximum tolerable dose of doxorubicin. Doxorubicin (Sigma) and was resuspended in sterile PBS. Doxorubicin was administered by intraperitoneal injection, at the following doses: 50 μg, 25 μg, 12.5 μg, and 6.75 μg. […] At the lower dose ranges, the mice survived for more than 4 weeks. The maximal tolerable dose was 25 μg.
compound,measurement,setting,value
COc1cccc2c1C(=O)c1c(O)c3c(c(O)c1C2=O)C[C@@](O)(C(=O)CO)C[C@@H]3O[C@H]1C[C@H](N)[C@H](O)[C@H](C)O1 [doxorubicin],growth inhibition compared to PBS,[1],4%
same,survival at the lower dose ranges,"[2]; 25 μg, 12.5 μg, 6.75 μg intraperitoneal",more than 4 weeks
same,mortality at the highest dose,[2]; 50 μg intraperitoneal,all the mice died within 2 weeks
same,maximal tolerable dose,[2]; intraperitoneal injection,25 µg
